Measurements taken from ChEMBL document CHEMBL5465560, “Selectivity Literature for EUbOPEN Chemogenomic Library” (2024).

How the values were obtained:
[1] = biological target: T1, Cyclin-G-associated kinase (Homo sapiens) (UniProt O14976); assay: Selectivity interaction (DSF assay) EUB0000229b GAK
T1 sequence (whole entry): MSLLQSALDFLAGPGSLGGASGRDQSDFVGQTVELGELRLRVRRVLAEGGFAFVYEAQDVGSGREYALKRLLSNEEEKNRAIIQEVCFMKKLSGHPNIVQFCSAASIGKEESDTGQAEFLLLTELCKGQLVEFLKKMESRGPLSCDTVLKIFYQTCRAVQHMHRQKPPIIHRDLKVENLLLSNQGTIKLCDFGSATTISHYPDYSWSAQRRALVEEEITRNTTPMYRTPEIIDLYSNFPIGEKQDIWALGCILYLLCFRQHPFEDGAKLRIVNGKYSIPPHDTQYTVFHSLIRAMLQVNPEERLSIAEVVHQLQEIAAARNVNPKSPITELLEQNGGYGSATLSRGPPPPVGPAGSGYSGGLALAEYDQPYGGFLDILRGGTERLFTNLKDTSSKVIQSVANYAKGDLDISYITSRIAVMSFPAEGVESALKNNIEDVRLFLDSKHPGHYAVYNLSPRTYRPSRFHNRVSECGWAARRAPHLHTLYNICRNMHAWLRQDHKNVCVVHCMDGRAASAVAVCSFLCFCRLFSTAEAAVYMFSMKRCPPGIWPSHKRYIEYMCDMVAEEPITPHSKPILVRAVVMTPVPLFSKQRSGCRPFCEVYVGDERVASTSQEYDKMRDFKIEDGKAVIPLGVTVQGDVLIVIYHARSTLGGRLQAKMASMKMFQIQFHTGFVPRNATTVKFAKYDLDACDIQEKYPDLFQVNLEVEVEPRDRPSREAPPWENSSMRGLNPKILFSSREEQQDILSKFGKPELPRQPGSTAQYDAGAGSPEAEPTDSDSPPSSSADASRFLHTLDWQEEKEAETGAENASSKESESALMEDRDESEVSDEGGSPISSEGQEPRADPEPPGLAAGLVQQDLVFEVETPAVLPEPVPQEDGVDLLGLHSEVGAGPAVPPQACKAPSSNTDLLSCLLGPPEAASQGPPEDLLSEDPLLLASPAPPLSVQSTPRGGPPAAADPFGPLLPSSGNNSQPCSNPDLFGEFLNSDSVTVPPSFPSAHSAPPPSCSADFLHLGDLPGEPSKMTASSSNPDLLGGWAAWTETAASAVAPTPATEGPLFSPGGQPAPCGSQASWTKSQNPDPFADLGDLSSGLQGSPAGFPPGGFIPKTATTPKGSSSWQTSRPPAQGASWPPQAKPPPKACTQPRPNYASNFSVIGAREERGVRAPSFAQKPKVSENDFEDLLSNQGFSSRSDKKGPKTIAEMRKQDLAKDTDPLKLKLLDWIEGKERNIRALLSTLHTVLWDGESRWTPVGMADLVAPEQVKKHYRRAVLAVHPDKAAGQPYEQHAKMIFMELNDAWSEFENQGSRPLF

[2] = biological target: T2, Myotonin-protein kinase (Homo sapiens) (UniProt Q09013); assay: Selectivity interaction (KinomeScan (DiscoverX)) EUB0000092b DMPK; details: at 10 µM
T2 sequence (whole entry): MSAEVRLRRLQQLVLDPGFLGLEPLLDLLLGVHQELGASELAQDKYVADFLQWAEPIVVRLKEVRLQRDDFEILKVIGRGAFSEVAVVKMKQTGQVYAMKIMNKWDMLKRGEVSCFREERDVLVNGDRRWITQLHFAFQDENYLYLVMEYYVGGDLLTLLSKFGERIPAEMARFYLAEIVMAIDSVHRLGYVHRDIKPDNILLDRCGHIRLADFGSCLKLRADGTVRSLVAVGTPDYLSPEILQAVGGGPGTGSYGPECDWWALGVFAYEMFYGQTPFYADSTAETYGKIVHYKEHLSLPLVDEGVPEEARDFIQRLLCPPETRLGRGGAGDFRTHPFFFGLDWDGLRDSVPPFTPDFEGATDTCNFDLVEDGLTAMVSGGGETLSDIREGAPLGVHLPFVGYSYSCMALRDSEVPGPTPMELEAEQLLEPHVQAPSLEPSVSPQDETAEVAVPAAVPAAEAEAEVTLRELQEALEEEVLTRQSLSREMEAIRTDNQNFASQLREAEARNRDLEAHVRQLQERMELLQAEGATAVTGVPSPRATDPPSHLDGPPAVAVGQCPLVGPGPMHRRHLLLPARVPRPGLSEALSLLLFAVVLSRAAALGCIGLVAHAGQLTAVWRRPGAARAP

[3] = biological target: Cyclin-dependent kinase 18 (Homo sapiens) (UniProt Q07002); assay: Selectivity interaction (KinomeScan (DiscoverX)) EUB0000666a CDK18; details: at 10 µM
Sequence of Cyclin-dependent kinase 18 (Homo sapiens) (Q07002 whole entry): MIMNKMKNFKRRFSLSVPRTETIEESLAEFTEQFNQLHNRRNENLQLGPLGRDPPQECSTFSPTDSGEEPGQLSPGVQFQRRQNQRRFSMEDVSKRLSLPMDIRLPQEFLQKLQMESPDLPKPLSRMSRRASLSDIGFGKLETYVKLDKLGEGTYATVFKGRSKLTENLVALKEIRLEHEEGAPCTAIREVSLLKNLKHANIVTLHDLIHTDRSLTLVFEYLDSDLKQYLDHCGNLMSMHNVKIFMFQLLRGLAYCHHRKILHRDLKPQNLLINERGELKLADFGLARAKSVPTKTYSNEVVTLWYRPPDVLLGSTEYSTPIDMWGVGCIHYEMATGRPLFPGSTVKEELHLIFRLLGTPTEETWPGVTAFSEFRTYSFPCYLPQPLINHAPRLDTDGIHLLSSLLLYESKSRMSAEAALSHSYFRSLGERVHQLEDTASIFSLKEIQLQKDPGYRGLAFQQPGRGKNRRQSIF

[4] = biological target: Fibroblast growth factor receptor 4 (Homo sapiens, UniProt P22455); assay: Selectivity interaction (Kinase panel (33PanQinase(R) Activity Assay)) EUB0000877a FGFR4
Sequence of Fibroblast growth factor receptor 4 (P22455 whole entry): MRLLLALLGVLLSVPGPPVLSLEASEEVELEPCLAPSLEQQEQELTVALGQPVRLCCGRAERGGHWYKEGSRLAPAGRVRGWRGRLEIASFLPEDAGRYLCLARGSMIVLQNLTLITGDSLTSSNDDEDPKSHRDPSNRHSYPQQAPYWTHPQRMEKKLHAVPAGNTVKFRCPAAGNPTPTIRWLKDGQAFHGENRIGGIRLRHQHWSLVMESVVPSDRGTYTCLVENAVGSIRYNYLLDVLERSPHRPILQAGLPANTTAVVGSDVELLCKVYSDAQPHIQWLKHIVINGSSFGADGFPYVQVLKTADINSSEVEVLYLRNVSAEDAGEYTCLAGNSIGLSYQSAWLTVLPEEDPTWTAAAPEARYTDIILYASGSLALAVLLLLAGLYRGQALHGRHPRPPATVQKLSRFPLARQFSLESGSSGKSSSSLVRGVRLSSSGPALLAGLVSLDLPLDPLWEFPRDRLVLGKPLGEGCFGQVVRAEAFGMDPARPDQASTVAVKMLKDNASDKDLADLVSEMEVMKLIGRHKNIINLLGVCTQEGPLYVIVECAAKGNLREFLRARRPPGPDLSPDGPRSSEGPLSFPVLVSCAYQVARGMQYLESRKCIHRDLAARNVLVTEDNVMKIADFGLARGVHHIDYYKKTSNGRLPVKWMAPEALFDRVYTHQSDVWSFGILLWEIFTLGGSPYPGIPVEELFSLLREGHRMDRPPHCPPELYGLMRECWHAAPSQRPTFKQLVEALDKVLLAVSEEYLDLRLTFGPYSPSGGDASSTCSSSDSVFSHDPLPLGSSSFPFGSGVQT

[5] = biological target: Dual specificity protein kinase CLK2 (Homo sapiens, UniProt P49760); details: at 10 µM
[6] = system: Proto-oncogene tyrosine-protein kinase receptor Ret (Homo sapiens), P07949 [M918T]; details: at 10 µM
Sequence of Proto-oncogene tyrosine-protein kinase receptor Ret (Homo sapiens), P07949 [M918T] (P07949 whole entry M918T): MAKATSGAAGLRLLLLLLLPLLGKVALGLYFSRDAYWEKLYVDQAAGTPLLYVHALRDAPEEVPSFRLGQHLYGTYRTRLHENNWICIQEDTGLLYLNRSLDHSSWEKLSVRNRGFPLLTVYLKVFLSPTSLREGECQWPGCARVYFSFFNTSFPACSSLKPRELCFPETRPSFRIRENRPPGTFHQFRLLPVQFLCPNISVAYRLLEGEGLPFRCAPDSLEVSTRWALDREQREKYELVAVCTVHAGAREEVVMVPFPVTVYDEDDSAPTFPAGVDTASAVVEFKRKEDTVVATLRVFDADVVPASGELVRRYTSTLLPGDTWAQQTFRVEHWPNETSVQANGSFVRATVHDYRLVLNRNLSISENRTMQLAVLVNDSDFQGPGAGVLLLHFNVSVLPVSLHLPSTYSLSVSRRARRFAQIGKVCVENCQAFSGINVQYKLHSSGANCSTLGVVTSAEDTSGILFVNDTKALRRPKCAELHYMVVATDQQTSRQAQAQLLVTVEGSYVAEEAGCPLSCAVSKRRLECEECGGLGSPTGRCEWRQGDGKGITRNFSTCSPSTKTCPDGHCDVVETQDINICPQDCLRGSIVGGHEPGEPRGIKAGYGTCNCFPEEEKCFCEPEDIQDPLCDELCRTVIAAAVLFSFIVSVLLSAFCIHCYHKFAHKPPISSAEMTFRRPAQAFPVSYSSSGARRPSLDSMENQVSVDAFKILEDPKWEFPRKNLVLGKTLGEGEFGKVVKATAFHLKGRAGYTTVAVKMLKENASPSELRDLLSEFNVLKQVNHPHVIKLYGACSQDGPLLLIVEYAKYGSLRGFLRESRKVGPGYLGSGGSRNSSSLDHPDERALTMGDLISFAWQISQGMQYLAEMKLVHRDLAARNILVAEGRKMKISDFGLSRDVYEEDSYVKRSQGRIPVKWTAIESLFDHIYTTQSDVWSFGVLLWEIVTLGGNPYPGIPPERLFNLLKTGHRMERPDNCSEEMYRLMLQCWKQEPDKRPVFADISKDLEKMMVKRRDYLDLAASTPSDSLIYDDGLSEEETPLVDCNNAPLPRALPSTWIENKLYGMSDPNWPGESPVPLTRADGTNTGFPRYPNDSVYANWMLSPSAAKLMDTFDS

[7] = biological target: Wee1-like protein kinase (Homo sapiens) (UniProt P30291); details: at 10 µM
Sequence of Wee1-like protein kinase (Homo sapiens) (P30291 whole entry, looked up): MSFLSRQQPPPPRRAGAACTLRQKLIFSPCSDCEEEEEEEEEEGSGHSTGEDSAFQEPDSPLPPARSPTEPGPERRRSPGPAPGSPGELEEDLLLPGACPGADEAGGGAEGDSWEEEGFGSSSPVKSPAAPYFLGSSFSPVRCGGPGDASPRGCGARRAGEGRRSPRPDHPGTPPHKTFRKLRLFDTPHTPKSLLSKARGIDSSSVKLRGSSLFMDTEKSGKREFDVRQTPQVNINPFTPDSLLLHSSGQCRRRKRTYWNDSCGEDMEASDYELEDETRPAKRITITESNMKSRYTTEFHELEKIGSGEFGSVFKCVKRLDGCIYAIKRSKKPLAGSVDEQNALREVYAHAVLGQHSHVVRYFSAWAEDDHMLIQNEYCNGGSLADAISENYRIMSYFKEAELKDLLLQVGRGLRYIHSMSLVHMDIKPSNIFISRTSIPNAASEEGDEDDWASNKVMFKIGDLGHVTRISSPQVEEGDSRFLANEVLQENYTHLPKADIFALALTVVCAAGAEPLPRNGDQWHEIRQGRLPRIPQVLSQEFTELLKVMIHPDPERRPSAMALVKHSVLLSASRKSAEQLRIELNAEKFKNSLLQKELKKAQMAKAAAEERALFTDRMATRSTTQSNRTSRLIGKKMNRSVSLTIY

[8] = system: Proto-oncogene tyrosine-protein kinase receptor Ret (Homo sapiens), P07949 [V804L]; details: at 10 µM
Sequence of Proto-oncogene tyrosine-protein kinase receptor Ret (Homo sapiens), P07949 [V804L] (P07949 whole entry V804L): as the sequence (P07949 whole entry M918T) above, with V804L, T918M counted along it

Focal adhesion kinase 1 = Focal adhesion kinase 1 (Homo sapiens, UniProt Q05397); assay: Selectivity interaction (ActivX KiNativ screen (kinase selectivity in THP-1 cell lysates)) EUB0000639a PTK2; type: subcellular; details: lysate, at 0.01 µM
Sequence of Focal adhesion kinase 1 (Q05397 2-1052 limits assumed): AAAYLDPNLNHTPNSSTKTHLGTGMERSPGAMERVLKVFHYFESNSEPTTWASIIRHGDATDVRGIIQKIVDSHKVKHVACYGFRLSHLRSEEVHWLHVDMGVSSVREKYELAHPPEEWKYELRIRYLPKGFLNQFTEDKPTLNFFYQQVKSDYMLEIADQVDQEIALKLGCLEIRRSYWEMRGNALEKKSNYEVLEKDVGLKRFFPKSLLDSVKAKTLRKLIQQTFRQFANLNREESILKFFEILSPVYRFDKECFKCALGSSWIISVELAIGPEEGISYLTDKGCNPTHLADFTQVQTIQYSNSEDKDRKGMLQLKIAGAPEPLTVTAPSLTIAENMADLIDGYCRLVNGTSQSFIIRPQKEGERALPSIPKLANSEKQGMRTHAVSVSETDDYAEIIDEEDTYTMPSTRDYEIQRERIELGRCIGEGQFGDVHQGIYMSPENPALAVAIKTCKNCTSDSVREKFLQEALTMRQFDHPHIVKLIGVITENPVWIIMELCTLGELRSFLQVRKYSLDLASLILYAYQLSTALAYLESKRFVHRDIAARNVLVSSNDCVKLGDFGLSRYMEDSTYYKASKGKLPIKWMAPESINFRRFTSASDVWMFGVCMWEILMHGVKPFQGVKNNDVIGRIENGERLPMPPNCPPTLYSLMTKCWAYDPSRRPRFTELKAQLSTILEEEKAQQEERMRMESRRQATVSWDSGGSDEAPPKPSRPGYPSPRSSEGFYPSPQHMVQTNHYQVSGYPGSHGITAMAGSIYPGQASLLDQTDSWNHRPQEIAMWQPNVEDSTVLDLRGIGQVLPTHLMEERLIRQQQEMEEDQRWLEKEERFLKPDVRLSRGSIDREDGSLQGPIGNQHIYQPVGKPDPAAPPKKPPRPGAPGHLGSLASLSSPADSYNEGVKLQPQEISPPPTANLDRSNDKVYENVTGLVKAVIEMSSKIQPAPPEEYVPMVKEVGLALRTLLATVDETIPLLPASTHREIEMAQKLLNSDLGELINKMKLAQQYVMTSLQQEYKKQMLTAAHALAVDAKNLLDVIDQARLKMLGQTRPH

[9] = biological target: Activin receptor type-2B (Homo sapiens) (UniProt Q13705); assay: Selectivity interaction (KinomeScan (DiscoverX)) EUB0000618a ACVR2B; details: at 10 µM
Sequence of Activin receptor type-2B (Homo sapiens) (Q13705 whole entry): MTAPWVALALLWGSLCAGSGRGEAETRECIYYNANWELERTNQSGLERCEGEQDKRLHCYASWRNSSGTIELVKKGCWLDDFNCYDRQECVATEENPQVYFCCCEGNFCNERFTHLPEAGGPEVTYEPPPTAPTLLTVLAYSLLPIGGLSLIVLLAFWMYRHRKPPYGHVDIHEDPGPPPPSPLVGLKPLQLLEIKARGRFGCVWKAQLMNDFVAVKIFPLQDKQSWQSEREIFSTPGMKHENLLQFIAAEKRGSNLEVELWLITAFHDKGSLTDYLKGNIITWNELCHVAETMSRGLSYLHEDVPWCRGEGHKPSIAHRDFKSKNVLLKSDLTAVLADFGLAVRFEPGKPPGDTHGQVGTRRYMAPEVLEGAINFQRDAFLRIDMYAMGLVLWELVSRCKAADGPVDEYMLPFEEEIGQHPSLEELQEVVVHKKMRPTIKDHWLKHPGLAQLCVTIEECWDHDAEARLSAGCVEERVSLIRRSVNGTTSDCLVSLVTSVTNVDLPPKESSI

[10] = biological target: Serine/threonine-protein kinase 26 (Homo sapiens, UniProt Q9P289); details: PBMC, at 1 µM
Sequence of Serine/threonine-protein kinase 26 (Q9P289 2-416 limits assumed): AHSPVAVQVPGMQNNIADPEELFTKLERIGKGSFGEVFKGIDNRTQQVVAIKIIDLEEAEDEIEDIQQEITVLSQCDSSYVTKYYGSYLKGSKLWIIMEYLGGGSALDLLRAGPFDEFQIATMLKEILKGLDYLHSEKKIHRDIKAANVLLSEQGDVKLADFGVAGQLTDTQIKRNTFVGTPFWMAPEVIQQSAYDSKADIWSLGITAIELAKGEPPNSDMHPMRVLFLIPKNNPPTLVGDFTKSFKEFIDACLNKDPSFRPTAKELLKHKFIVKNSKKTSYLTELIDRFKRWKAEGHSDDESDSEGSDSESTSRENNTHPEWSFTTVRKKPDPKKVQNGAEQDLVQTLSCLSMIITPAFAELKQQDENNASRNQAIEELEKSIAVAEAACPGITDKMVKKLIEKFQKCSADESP

[11] = biological target: T3, Aurora kinase C (Homo sapiens) (UniProt Q9UQB9); assay: Selectivity interaction (KinomeScan (DiscoverX)) EUB0001619a AURKC; details: at 1 µM
T3 sequence (whole entry): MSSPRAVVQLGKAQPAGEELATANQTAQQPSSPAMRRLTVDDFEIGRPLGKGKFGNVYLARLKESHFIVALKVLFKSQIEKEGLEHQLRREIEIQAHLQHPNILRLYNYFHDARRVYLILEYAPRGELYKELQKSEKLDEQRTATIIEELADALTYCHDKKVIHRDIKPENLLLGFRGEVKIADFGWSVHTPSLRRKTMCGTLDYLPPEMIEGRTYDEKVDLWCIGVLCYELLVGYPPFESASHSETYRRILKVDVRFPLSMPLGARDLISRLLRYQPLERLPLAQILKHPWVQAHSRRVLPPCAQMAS

Question: How did the dTm [1] turn out when `COc1cc(N(C)c2ccnc3ccc(C(F)(F)F)cc23)cc(OC)c1OC` was run?
Answer: -0.3 K

Question: Which % of control [2] does the source give for `CCC(=O)N1CCN(c2ccc(-n3c(=O)ccc4cnc5ccc(-c6cnc7ccccc7c6)cc5c43)cc2C(F)(F)F)CC1` here?
Answer: 77%

Question: How did the % of control [3] turn out when `O=C(NOC[C@H](O)CO)c1ccc(F)c(F)c1Nc1ccc(I)cc1F` was run?
Answer: 100%

Question: With `CCC(=O)N1CC[C@H](Nc2ncnc3c2CN(c2cnc(OC)c(C(F)(F)F)c2)CC3)C1` [LENIOLISIB] as the molecule, how does the IC50 [4] read?
Answer: > 10 µM

Question: With `Cc1cc([C@@H](C)Nc2ccccc2C(=O)O)c2nc(N3CCOCC3)cc(=O)n2c1` [AZD-6482] as the molecule, how does the % of control [5] read?
Answer: 70%

Question: What about the % of control [6] of the same molecule?
Answer: 100%

Question: And the % of control [7]?
Answer: 100%

Question: What about the % of control [8] of the same molecule?
Answer: 99%

Question: How did the % of inhibition (Focal adhesion kinase 1) turn out when `CC[C@@H]1[C@H](F)C(=O)N[C@@H]1COc1nccc2cc(C(N)=O)c(OC)cc12` [ZIMLOVISERTIB] was run?
Answer: -47.2%

Question: Which % of control [9] does the source give for `O[C@H]1CC[C@H](Nc2ncc3nc(Nc4c(F)cc(F)cc4F)n([C@H]4CCOC4)c3n2)CC1` here?
Answer: 100%

Question: For `N#Cc1cccc(-c2c[nH]c3ncnc(N4CCOCC4)c23)c1`, which % of inhibition [10] is on record?
Answer: 61%

Question: And the % of control [11]?
Answer: 43%
